This is an account of results in ChEMBL document CHEMBL1126634, “Cyclic sulfolanes as novel and high affinity P2 ligands for HIV-1 protease inhibitors” (J Med Chem, 1993).

The target of test [1] is Human immunodeficiency virus type 1 protease (Human immunodeficiency virus 1, UniProt Q72874). Description: Tested against S2-binding site of HIV-1 protease.
For test [2], the target named is Human immunodeficiency virus type 1 protease (Human immunodeficiency virus 1) (UniProt Q72874). Description: Antiviral potency of HIV-1 in MT-4 human T lymphoid cells with IIIb isolate. In kind it is functional, cell-based.
The next test has as its system MT4. Description: Compound tested for the antiviral potency of HIV-1 in MT-4 human T lymphoid cells with IIIb isolate (n=5). Format: functional. To be noted: read-out: CIC95.

For `CC(C)[C@@H]1[C@H](OC(=O)N[C@@H](Cc2ccccc2)[C@H](O)CN2C[C@H]3CCCC[C@H]3C[C@H]2C(=O)NC(C)(C)C)CCS1(=O)=O`, in test [1], the IC50 came out at 3 nM. Further, the IC95 in test [2] is 50 nM.

As for `C[C@H]1OCC[C@H]1OC(=O)N[C@@H](Cc1ccccc1)[C@H](O)CN1C[C@H]2CCCC[C@H]2C[C@H]1C(=O)NC(C)(C)C`, the IC50 in test [1] came to 169 nM. The IC95 in test [2] amounted to 1600 nM.

`CC(C)C[C@@H]1[C@H](OC(=O)N[C@@H](Cc2ccccc2)[C@H](O)CN2C[C@H]3CCCC[C@H]3C[C@H]2C(=O)NC(C)(C)C)CCS1(=O)=O`: in test [1], the IC50 came to 30 nM. In test [2], this molecule showed an IC95 of 1500 nM.

In turn, `CC(C)[C@H]1[C@@H](OC(=O)N[C@@H](Cc2ccccc2)[C@H](O)CN2C[C@H]3CCCC[C@H]3C[C@H]2C(=O)NC(C)(C)C)CCS1(=O)=O` registered an IC50 in test [1] of 11 nM. Further, in test [2], the IC95 was found to be 200 nM.

Take `CC(C)(C)NC(=O)[C@@H]1C[C@@H]2CCCC[C@@H]2CN1C[C@@H](O)[C@H](Cc1ccccc1)NC(=O)O[C@@H]1CCS(=O)(=O)C1`: the IC50 in test [1] was 140 nM. The IC95 in test [2] is above 800 nM.

In the case of `CC(C)(C)NC(=O)[C@@H]1C[C@@H]2CCCC[C@@H]2CN1C[C@@H](O)[C@H](Cc1ccccc1)NC(=O)O[C@H]1CCS(=O)(=O)C1`, the IC50 in test [1] was 75 nM. Also, in the test with MT4, the IC95 stood at 350 nM.

`NC(=O)OC[C@@H]1CCCOC1` returned an IC50 in test [1] of 694 nM.

As to `C[C@@H]1OCC[C@@H]1OC(=O)N[C@@H](Cc1ccccc1)[C@H](O)CN1C[C@H]2CCCC[C@H]2C[C@H]1C(=O)NC(C)(C)C`, the concentration for half-maximal inhibition (IC50) in test [1] amounted to 52.4 nM. For the same molecule, the IC95 in test [2] was determined as 400 nM.

`CC[C@H]1[C@@H](OC(=O)N[C@@H](Cc2ccccc2)[C@H](O)CN2C[C@H]3CCCC[C@H]3C[C@H]2C(=O)NC(C)(C)C)CCS1(=O)=O` yielded an IC50 in test [1] of 5.4 nM. The IC95 in test [2] stood at 400 nM.

In turn, `CC(C)C[C@H]1[C@@H](OC(=O)N[C@@H](Cc2ccccc2)[C@H](O)CN2C[C@H]3CCCC[C@H]3C[C@H]2C(=O)NC(C)(C)C)CCS1(=O)=O` displayed an IC50 in test [1] of 12 nM. In addition, the IC95 in test [2] came out at 400 nM.

In turn, `C[C@H]1[C@@H](OC(=O)N[C@@H](Cc2ccccc2)[C@H](O)CN2C[C@H]3CCCC[C@H]3C[C@H]2C(=O)NC(C)(C)C)CCS1(=O)=O` came in with an IC50 in test [1] of 11.4 nM. This molecule also gave an IC95 in test [2] of 200 nM.

`CC(C)(C)NC(=O)[C@@H]1C[C@@H]2CCCC[C@@H]2CN1C[C@@H](O)[C@H](Cc1ccccc1)NC(=O)OCCS(C)(=O)=O`: the IC50 in test [1] turned out to be 1030 nM.

Molecule `CC(C)(C)NC(=O)[C@@H]1C[C@@H]2CCCC[C@@H]2CN1C[C@@H](O)[C@H](Cc1ccccc1)NC(=O)O[C@H]1CCOC1` registered an IC95 in test [2] of 800 nM.

For the molecule `CC[C@@H]1[C@H](OC(=O)N[C@@H](Cc2ccccc2)[C@H](O)CN2C[C@H]3CCCC[C@H]3C[C@H]2C(=O)NC(C)(C)C)CCS1(=O)=O`, the IC50 in test [1] turned out to be 13.1 nM. The molecule further had an IC95 in test [2] of 800 nM.

With `C[C@@H]1[C@H](OC(=O)N[C@@H](Cc2ccccc2)[C@H](O)CN2C[C@H]3CCCC[C@H]3C[C@H]2C(=O)NC(C)(C)C)CCS1(=O)=O`, the IC50 in test [1] turned out to be 22.3 nM. The molecule also had an IC95 in test [2] of 200 nM.

Molecule `CC(C)[C@H]1SCC[C@H]1OC(=O)N[C@@H](Cc1ccccc1)[C@H](O)CN1C[C@H]2CCCC[C@H]2C[C@H]1C(=O)NC(C)(C)C` came in with an IC50 in test [1] of 9 nM.
